Non-standard residues stand in square brackets, D forms with d. No end group written: not given here. Phe(4-NH2) = Nc1ccc(C[C@H](N)C(=O)O)cc1
Legend:
[1] = test system: human peripheral blood mononuclear cells (PBMC); experiment: Respiratory burst (hydrogen peroxide generation), human PBMC; format: cell-based; conditions: alone and in response to PMA 10 ng/ml; 4 hours exposure
Method: The respiratory burst of leukocytes (macrophages and polymorphonuclear neutrophils) is one component of the mediator system used to kill bacteria. As with phagocytosis, the level of this respiratory burst activity in resident macrophages is low. […] Studies were conducted to assess the effect of in vitro exposure of murine or rat peritoneal macrophages and human peripheral blood mononuclear cells (PBMC) to various concentrations of AII on the capacity to generate hydrogen peroxide via the respiratory burst system. For the human studies, five different donors were examined.
The murine or rat peritoneal cells were harvested by lavage with 5-15 ml of cold PBS with 0.5% bovine serum albumin. The human PBMC were harvested by venipuncture from normal human volunteers and isolated from peripheral blood by Ficoll Hypaque density centrifugation. After isolation, the cells were resuspended at 1×10^6 cells/ml and placed at 100 μl per well into 96 well plates. The cells were incubated with various concentrations of AII or AII analogues for 4 hours at 37° C. The cells were then preloaded with a fluorescent probe for hydrogen peroxide, 2,7 dichlorofluorescein acetate, which is nonfluorescent in the absence of hydrogen peroxide. Fifteen minutes later, 10 ng/ml of phorbol myristate acetate (+PMA) or PBS (−PMA) was added to stimulate the production of hydrogen peroxide. One hour after stimulation the level of fluorescence produced was measured on a Cytofluor 2350 multiwell fluorometer.

AT2 receptor = conditions: experimental models tested; cited from earlier work
[2] = test system: Rat Peritoneal Macrophages; experiment: Phagocytosis of opsonized yeast by rat peritoneal macrophages; format: cell-based, Sprague Dawley rats
Method: Resident peritoneal macrophages have very little phagocytic activity. Exposure of macrophages to inflammatory or activating agents will increase this macrophage function. Resident peritoneal macrophages were harvested from C57B1/6 mice or Sprague Dawley rats and resuspended at a concentration of 1×10^6 cells/ml in phosphate buffered saline (PBS). Five separate 0.5 ml cell aliquots were placed on a glass coverslip in a 35 mm petri dish. Prior to incubation, either 0.5 ml of PBS, AII, or AII analogues or fragments at between 1-1000 ug/ml final concentration was added to the individual cover slips. The dishes containing the cover slips were then incubated at 37° C. for 4 hours, after which the cover slips were washed 3 to 6 times with PBS. Opsonized yeast particles (Sigma Chemical Co.) (yeast opsonized with adult serum from the same species as that under study) were added to the cover slips and incubated for 2 hours, after which the cover slips were again washed with PBS and inverted onto a glass slide. The number of macrophages that ingested yeast and the number of yeast per macrophage ingested was then determined microscopically. At least 100 macrophages per coverslip were counted. The data from this study are summarized in Tables 3 and 4 and FIGS. 1 and 2.

[3] = Test of AII fragments for effectiveness (method not described)

Row | Substance | ability to generate hydrogen peroxide (respiratory burst) [1] | binding characteristics (AT2 receptor) | #/Cell ([2]; peptide 100 μg/ml) | % w/Yeast ([2]; peptide 100 μg/ml) [%] | Number of Macrophages with Yeast (Yeast Number) 0 ([2]; peptide 100 μg/ml) | Number of Macrophages with Yeast (Yeast Number) 1-3 ([2]; peptide 100 μg/ml) | Number of Macrophages with Yeast (Yeast Number) 4-6 ([2]; peptide 100 μg/ml) | #/Cell ([2]; peptide 1000 μg/ml) | % w/Yeast ([2]; peptide 1000 μg/ml) [%] | Number of Macrophages with Yeast (Yeast Number) 1-3 ([2]; peptide 1000 μg/ml) | Number of Macrophages with Yeast (Yeast Number) 4-6 ([2]; peptide 1000 μg/ml) | effectiveness [3]
1 | Asp-Arg-Val-Tyr-Ile-His-Pro (DRVYIHP) [AII(1-7)] | an increase in the respiratory burst capacity was observed |  |  |  |  |  |  |  |  |  |  | 
2 | Asp-Arg-Val-Tyr-Ile-Xaa-Pro-Phe (DRVYI[Phe(4-NH2)]PF) [(p-NH2-Phe)6-AII] |  | comparable to AT2 antagonists |  |  |  |  |  |  |  |  |  | 
3 | DRPYIHPF [GSD 24B] | an increase in the respiratory burst capacity was observed |  | 0.58 | 23.1 | 100 | 25 | 5 | 0.18 | 9.1 | 10 | 0 | 
4 | DRVYIHPI [GSD 28] | an increase in the respiratory burst capacity was observed |  | 0.02 | 1.0 | 100 | 1 | 0 |  |  |  |  | 
5 | His-Pro-Phe (HPF) [AII(6-8)] |  |  |  |  |  |  |  |  |  |  |  | found not to be effective
6 | RVYAHPF [GSD 22A] | an increase in the respiratory burst capacity was observed |  | 0.59 | 23.7 | 100 | 26 | 5 | 0.40 | 18.7 | 22 | 1 | 
7 | Tyr-Ile-His-Pro-Phe (YIHPF; printed: Tyr-Ile-His-Pro-Phe) [AII(4-8)] |  |  |  |  |  |  |  |  |  |  |  | found not to be effective

Reference: patent US7744927B2, “Methods of promoting hematopoietic and mesenchymal cell proliferation and differentiation” (University of Southern California, priority 1997, dated 2010)
